Here are results for nine compounds from BindingDB's records for patent US12552793 (Kangbaida (Sichuan) Biotechnology Co., 2026).

The structures appear in SMILES notation.

In the experiment the target is DNA-dependent protein kinase catalytic subunit (Homo sapiens, UniProt P78527). Nature of the experiment: Inhibition of DNA-PK Kinase. How it is done: IC50 was calculated using GraphPad Prism 8.
Sequence of DNA-dependent protein kinase catalytic subunit (P78527 whole entry): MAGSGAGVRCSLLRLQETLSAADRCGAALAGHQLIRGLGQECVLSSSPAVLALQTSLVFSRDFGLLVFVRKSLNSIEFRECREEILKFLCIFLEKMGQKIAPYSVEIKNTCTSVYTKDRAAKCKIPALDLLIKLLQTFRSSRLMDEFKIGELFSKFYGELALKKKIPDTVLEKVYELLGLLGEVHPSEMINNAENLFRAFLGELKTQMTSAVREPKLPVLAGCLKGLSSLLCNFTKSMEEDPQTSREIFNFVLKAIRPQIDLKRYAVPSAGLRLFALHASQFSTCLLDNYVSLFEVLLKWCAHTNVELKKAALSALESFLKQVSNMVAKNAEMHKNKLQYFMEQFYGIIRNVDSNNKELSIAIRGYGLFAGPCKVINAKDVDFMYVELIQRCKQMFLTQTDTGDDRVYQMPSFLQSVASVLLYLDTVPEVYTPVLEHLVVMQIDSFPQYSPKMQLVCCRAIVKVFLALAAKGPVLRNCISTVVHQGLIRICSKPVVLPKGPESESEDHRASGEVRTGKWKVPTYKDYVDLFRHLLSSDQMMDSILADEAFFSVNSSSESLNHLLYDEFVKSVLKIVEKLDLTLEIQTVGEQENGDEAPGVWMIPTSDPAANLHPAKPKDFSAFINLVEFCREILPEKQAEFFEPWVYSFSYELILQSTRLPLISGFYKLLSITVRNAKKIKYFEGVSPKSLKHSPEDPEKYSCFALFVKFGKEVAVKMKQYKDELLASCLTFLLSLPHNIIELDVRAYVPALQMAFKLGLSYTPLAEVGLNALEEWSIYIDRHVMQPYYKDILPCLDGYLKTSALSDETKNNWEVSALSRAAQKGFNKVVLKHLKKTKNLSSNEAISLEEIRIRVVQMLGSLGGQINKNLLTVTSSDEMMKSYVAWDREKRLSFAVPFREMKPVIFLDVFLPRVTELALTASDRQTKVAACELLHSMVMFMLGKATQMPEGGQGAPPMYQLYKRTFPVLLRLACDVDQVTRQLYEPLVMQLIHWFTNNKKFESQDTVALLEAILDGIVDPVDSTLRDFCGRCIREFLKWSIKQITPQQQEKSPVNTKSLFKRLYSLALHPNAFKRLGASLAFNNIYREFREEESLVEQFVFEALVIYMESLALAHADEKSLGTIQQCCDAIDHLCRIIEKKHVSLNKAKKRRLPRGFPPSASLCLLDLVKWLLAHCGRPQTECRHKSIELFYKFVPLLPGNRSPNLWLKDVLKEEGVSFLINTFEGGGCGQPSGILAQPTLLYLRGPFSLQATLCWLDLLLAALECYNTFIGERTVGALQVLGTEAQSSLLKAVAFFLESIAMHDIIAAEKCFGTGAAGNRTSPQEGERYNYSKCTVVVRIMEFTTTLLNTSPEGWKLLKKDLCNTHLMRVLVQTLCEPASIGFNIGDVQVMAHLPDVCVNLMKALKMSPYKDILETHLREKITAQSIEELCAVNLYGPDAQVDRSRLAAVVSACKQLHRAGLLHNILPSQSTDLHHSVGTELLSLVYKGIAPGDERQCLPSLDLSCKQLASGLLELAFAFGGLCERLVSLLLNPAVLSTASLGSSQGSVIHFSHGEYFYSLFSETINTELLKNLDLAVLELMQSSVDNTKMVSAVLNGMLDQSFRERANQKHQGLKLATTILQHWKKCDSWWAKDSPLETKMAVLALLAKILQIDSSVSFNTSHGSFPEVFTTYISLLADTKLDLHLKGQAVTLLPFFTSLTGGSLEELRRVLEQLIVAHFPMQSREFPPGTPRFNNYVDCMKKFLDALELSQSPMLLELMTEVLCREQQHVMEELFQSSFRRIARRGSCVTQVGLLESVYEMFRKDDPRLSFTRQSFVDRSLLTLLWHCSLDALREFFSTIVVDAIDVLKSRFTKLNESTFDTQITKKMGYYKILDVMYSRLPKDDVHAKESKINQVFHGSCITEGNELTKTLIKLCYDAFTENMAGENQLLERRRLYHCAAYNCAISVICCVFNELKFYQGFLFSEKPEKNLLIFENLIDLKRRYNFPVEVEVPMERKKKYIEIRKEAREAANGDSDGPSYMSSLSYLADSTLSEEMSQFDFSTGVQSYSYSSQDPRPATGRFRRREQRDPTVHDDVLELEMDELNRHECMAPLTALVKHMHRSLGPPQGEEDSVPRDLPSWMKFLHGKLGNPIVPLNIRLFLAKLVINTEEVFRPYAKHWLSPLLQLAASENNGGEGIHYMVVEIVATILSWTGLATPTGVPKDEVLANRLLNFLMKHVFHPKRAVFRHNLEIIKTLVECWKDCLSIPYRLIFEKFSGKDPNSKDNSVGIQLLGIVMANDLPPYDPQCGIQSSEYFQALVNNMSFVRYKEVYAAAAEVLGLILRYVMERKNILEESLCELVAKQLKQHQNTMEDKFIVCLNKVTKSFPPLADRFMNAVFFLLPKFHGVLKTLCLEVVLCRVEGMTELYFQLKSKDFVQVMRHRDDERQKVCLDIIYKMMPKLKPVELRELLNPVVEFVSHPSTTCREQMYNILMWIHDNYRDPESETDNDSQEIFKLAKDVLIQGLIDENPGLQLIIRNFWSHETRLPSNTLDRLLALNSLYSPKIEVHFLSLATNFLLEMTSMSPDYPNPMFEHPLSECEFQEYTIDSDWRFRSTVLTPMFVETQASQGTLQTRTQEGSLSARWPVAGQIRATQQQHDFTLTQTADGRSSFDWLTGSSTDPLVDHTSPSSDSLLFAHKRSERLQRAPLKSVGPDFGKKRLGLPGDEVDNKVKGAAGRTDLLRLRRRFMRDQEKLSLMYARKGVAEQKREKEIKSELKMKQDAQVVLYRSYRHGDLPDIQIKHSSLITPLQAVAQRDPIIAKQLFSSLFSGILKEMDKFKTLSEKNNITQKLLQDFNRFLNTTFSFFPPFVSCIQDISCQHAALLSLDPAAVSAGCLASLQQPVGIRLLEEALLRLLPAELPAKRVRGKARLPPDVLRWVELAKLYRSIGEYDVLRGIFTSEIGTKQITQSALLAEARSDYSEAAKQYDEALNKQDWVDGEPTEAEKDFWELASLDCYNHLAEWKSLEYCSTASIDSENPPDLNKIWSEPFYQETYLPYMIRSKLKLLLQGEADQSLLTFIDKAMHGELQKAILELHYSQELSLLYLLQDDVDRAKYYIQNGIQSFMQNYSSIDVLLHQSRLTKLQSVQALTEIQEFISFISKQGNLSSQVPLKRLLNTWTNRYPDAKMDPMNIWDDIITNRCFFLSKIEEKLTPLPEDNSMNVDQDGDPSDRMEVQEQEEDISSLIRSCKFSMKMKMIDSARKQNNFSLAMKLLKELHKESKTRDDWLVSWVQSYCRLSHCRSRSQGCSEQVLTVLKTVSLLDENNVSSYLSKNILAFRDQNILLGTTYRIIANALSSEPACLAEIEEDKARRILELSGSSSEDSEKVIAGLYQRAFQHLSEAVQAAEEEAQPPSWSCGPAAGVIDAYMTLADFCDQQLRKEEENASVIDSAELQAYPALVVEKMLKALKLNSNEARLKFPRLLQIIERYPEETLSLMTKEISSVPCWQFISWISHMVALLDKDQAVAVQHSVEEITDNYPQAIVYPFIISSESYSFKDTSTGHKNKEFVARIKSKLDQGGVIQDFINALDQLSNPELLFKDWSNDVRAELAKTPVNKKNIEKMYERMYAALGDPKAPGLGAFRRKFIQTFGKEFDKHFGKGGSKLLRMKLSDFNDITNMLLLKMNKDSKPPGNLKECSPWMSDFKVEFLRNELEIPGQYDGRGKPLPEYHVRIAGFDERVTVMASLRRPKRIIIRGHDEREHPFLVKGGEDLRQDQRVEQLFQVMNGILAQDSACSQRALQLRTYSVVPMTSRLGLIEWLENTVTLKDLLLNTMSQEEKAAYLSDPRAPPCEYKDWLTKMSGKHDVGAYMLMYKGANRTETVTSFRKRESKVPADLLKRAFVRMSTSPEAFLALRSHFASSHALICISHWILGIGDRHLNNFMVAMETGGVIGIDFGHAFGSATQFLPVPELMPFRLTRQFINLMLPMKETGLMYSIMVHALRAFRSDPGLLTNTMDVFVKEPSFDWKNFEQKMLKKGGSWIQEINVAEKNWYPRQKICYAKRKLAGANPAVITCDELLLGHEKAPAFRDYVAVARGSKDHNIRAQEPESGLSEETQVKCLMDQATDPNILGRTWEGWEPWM

Compound `[2H]C1(O)C2CC3CC1CC(n1c(=O)n(C)c4cnc(Nc5cn6ncnc6cc5C)nc41)(C3)C2` (centres undefined) [US12552793, Compound 20-1] had an IC50 of 30 pM.

In turn, `Cc1cc2ncnn2cc1Nc1ncc2c(n1)n(C1C3CC4CC1CC(O)(C4)C3)c(=O)n2C` (centres undefined) [US12552793, Compound 16-1] showed a concentration for half-maximal inhibition (IC50) of 520 pM.

`[2H]C1(O)C2CC3CC1CC(n1c(=O)n(C)c4cnc(Nc5cn6ncnc6cc5C)nc41)(C3)C2` (centres undefined) [US12552793, Compound 20-2] showed a half-maximal inhibitory concentration (IC50) of 1100 pM.

`Cc1cc2ncnn2cc1Nc1ncc2c(n1)n(C1C3CC4CC1CC(O)(C4)C3)c(=O)n2C` (centres undefined) [US12552793, Compound 16-2] returned a concentration for half-maximal inhibition (IC50) of 2490 pM.

`[2H]C1(O)C2CC3CC1CC(n1c(=O)n(C)c4cnc(Nc5cc(F)c(C(N)=O)cc5C)nc41)(C3)C2` (centres undefined) [US12552793, Compound 23-1] came in with an IC50 of 2840 pM.

For the compound `COC1(OC)C2CC3CC1CC(n1c(=O)n(C)c4cnc(Nc5cc(F)c(C(N)=O)cc5C)nc41)(C3)C2` [US12552793, Compound 26], the IC50 was 10 pM.

Regarding `[2H]C1(O)C2CC3CC1CC(n1c(=O)n(C)c4cnc(Nc5cc(F)c(C(N)=O)cc5C)nc41)(C3)C2` (centres undefined) [US12552793, Compound 23-2], the IC50 amounted to 850 pM.

`Cc1cc(C(N)=O)c(F)cc1Nc1ncc2c(n1)n(C13CC4CC(C1)C(O)C(C4)C3)c(=O)n2C` (centres undefined) [US12552793, Compound 17-2] registered a 50% inhibitory concentration (IC50) of 2200 pM.

Compound `Cc1cc(C(N)=O)c(F)cc1Nc1ncc2c(n1)n(C13CC4CC(C1)C(O)C(C4)C3)c(=O)n2C` (centres undefined) [US12552793, Compound 17-1] came in with an IC50 of 10 pM.

What is called IC50 is the point on the concentration scale where inhibition reaches its midpoint.
